Structures are written as SMILES. Counter-ions that a name gives are not always drawn.

The values below come from patent US10106515B2, “1-(cyclopent-2-en-1-yl)-3-(2-hydroxy-3-(arylsulfonyl)phenyl)urea derivatives as CXCR2 inhibitors” (GLAXOSMITHKLINE INTELLECTUAL PROPERTY DEVELOPMENT LIMITED, priority 2014, dated 2018).

The first test has as its system upregulation of CD11b in GROα stimulated neutrophils in human whole blood. Kind of test: Human whole blood assay (CD11b upregulation). It counts as cell-based. Conditions: Neutrophil, inhibition of CD11b upregulation, GROα 33 nM final, flow cytometry, read-out: pIC50 (human whole blood assay) (converted). As for the experimental part: The whole blood assay tested the compounds' ability to inhibit the upregulation of CD11b in GROα stimulated neutrophils in human whole blood.
Blood was withdrawn by venipuncture from consented adults and poured into a Sterilin tube containing an anti-coagulant Heparin (10 uL/mL of blood). All the test compounds were dissolved in DMSO to 4 mM and serial diluted across the plate, 1 in 3 to provide 10 point dose response curves. The compounds were then diluted 100 fold in -PBS [Phosphate buffered saline (without Calcium Chloride and Magnesium Chloride)] after which, 1 uL was dispensed in 96 U bottom Costar plates using an FX.
10 uL of blood was transferred to the compound plate using a multi-channel pipette, gently tapped and incubated for 15 minutes, at 37° C. After 15 minutes, the stimulant GROα was diluted to 100 nM in 0.1% BSA (Albumin Bovine Serum)-PBS and 5 uL is dispensed across the whole plate for a final concentration of 33 nM. The plate was gently tapped and incubated further for 15 minutes at 37° C. The plate was placed on ice for 1 minute before addition of 10 uL of an antibody cocktail consisting of CD11b-FITC (40 ug/mL) purchased from BioLegend (address: Cambridge Bioscience, Munro House, Trafalgar Way, Bar Hill, Cambridge, UK) and CD16-PE purchased from BD Pharmingen (address: The Danby Building, Edmung Halley Road, Oxford Science Park, Oxford, UK) (stock concentration 100 tests, 2 mL stock volume is diluted 1 in 5). The plate was placed on ice for 1 hour in the dark. The cells were then fixed using 200 uL/well of 1×FACS (Flow Activated Cell Sorting) Lyse solution (Becton and Dickinson-BD) and on ice for 20 minutes in the dark. The plate was centrifuged at 1600 rpm for 5 minutes and re-suspended with 200 uL of ice cold PBS. This step was repeated twice and on the final step the plate was re-suspended with 50 uL of ice cold -PBS for flow Cytometric analysis.
Samples were run on a Becton and Dickinson (BD)-Acurri C6 Flow Cytometer using a HyperCyt sampling apparatus (IntelliCyt) with a flow rate 2 uL/sec. CD11b upregulation is monitored in neutrophils and identified using a combination of both side scatter and CD16 expression.
Consider `CO[C@@H]1CCC[C@H]1S(=O)(=O)c1c(Cl)ccc(NC(=O)N[C@@H]2CCC=C2C)c1O` (racemic) [Compound 144, (±)trans-1-(4-chloro-2-hydroxy-3-((2-methoxycyclopent-yl)sulfonyl)phenyl)-3-((R)-2-methylcyclopent-2-en-1-yl)urea, trifluoroacetic acid salt], for which the IC50 was 25.1 to 2510 nM. Still for that read-out and setting: as for `CC(C)(C1COC1)S(=O)(=O)c1c(Cl)ccc(NC(=O)N[C@@H]2CCC=C2Cl)c1O` [Compound 5, (R)-1-(4-chloro-2-hydroxy-3-((2-(oxetan-3-yl)propan-2-yl)sulfonyl)phenyl)-3-(2-chlorocyclopent-2-en-1-yl)urea], the figure is 25.1 to 2510 nM; as for `CC1=CCCC1NC(=O)Nc1ccc(Cl)c(S(=O)(=O)C(C)C)c1O` (centres unmarked) [Compound 20, 1-(4-chloro-2-hydroxy-3-(isopropylsulfonyl)phenyl)-3-(2-methylcyclopent-2-en-1-yl)urea], 25.1 to 2510 nM. As for `CC1=CCC[C@H]1NC(=O)Nc1ccc(Cl)c(S(=O)(=O)C(C)c2ccccn2)c1O` (stereo partly drawn) [Compound 23, 1-(4-chloro-2-hydroxy-3-((1-(pyridin-2-yl)ethyl)sulfonyl)phenyl)-3-((R)-2-methylcyclopent-2-en-1-yl)urea, trifluoroacetic acid salt], the IC50 was 25.1 to 2510 nM. On to `CC1(S(=O)(=O)c2c(Cl)ccc(NC(=O)N[C@H]3CCC=C3Cl)c2O)CCOCC1` [Compound 42, (S)-1-(4-chloro-2-hydroxy-3-((4-methyltetrahydro-2H-pyran-4-yl)sulfonyl)phenyl)-3-(2-chlorocyclopent-2-en-1-yl)urea], for which the IC50 is 25.1 to 2510 nM.

In the next test the target is T1, recombinant human CXCR2 (Homo sapiens, UniProt P25025).
T1 construct: TEV protease site; Gal4-VP16 transcription factor
T1 sequence (P25025 1-360): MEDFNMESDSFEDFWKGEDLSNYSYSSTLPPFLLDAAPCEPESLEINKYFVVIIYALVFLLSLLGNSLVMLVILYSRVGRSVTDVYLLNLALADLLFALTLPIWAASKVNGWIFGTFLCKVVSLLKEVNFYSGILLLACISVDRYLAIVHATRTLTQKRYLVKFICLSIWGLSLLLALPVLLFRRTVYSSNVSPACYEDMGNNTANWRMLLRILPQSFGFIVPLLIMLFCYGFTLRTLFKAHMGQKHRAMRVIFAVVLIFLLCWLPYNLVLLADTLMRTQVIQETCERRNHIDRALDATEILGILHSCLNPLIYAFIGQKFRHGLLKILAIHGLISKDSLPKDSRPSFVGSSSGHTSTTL
The test can be described thus: CXCR2 Tango assay. Conditions: mean pIC50 of multiple test results; stimulated with 80 nM hCXCL1; reporter gene blue/green emission ratio; read-out: pIC50 (CXCR2 Tango assay) (converted). It counts as cell-based. In short, it runs like this:
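Mean pIC50 comes from sigmoidal fits of the blue/green (460/530 nm) CCF4-AM ratio, normalized between hCXCL1-stimulated and DMSO controls. Compounds in 10-point dose response were incubated overnight at 37 °C with recombinant human CXCR2 Tango cells (~10,000/well) and 80 nM hCXCL1, with reporter read-out via arrestin-TEV release of Gal4-VP16.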
On the technique in general: Reporter assays use an easily measured gene product as a stand-in for the process of interest.
For the compound `CO[C@@H]1CCC[C@H]1S(=O)(=O)c1c(Cl)ccc(NC(=O)N[C@@H]2CCC=C2C)c1O` (racemic) [Compound 144, (±)trans-1-(4-chloro-2-hydroxy-3-((2-methoxycyclopent-yl)sulfonyl)phenyl)-3-((R)-2-methylcyclopent-2-en-1-yl)urea, trifluoroacetic acid salt], the IC50 was at most 1 nM.

`CC(C)(C1COC1)S(=O)(=O)c1c(Cl)ccc(NC(=O)N[C@@H]2CCC=C2Cl)c1O` [Compound 5, (R)-1-(4-chloro-2-hydroxy-3-((2-(oxetan-3-yl)propan-2-yl)sulfonyl)phenyl)-3-(2-chlorocyclopent-2-en-1-yl)urea]: the IC50 is at most 10 nM. As for `CC1=CCCC1NC(=O)Nc1ccc(Cl)c(S(=O)(=O)C(C)C)c1O` (centres unmarked) [Compound 20, 1-(4-chloro-2-hydroxy-3-(isopropylsulfonyl)phenyl)-3-(2-methylcyclopent-2-en-1-yl)urea], the IC50 was at most 1 nM.

As to `CC1=CCC[C@H]1NC(=O)Nc1ccc(Cl)c(S(=O)(=O)C(C)c2ccccn2)c1O` (stereo partly drawn) [Compound 23, 1-(4-chloro-2-hydroxy-3-((1-(pyridin-2-yl)ethyl)sulfonyl)phenyl)-3-((R)-2-methylcyclopent-2-en-1-yl)urea, trifluoroacetic acid salt], the IC50 is at most 1 nM.

`COCCN1CCN(S(=O)(=O)c2c(Cl)ccc(NC(=O)NC3CCC=C3C)c2O)CC1` (centres unmarked) [Compound 161, 1-(4-chloro-2-hydroxy-3-((4-(2-methoxyethyl)piperazin-1-yl)sulfonyl)phenyl)-3-(2-methylcyclopent-2-en-1-yl)urea]: the IC50 is at most 10 nM. In the case of `O=C(Nc1ccc(Cl)c(S(=O)(=O)[C@H]2C[C@@H](O)C2)c1O)N[C@@H]1CCC=C1Cl` [Compound 162, 1-(4-chloro-2-hydroxy-3-((cis-3-hydroxycyclobutyl)sulfonyl)phenyl)-3-((R)-2-chlorocyclopent-2-en-1-yl)urea], the IC50 was at most 1 nM. Still for that read-out and setting: next, `O=C(Nc1ccc(Cl)c(S(=O)(=O)[C@H]2C[C@@H](O)C2)c1O)NC1C=CCC1` (stereo partly drawn) [Compound 164, 1-(4-chloro-2-hydroxy-3-((cis-3-hydroxycyclobutyl)sulfonyl)phenyl)-3-(cyclopent-2-en-1-yl)urea]: at most 10 nM; `O=C(Nc1ccc(Cl)c(S(=O)(=O)[C@H]2CCOC2)c1O)N[C@@H]1CCC=C1Cl` [Compound 166, 1-(4-chloro-2-hydroxy-3-(((S)-tetrahydrofuran-3-yl)sulfonyl)phenyl)-3-((R)-2-chlorocyclopent-2-en-1-yl)urea]: at most 1 nM; `O=C(Nc1ccc(Cl)c(S(=O)(=O)C2(F)CCOC2)c1O)N[C@@H]1CCC=C1Cl` (stereo partly drawn) [Compound 167, 1-(4-chloro-3-((3-fluorotetrahydro-furan-3-yl)sulfonyl)-2-hydroxyphenyl)-3-((R)-2-chlorocyclopent-2-en-1-yl)urea]: at most 1 nM. Still for that read-out and setting: as for `O=C(Nc1ccc(Cl)c(S(=O)(=O)C2(F)CCOCC2)c1O)N[C@@H]1CCC=C1Cl` [Compound 168, (R)-1-(4-chloro-3-((4-fluorotetrahydro-2H-pyran-4-yl)sulfonyl)-2-hydroxyphenyl)-3-(2-chlorocyclopent-2-en-1-yl)urea], the figure is at most 1 nM; as for `O=C(O)C(F)(F)F.[2H]C1(S(=O)(=O)c2c(Cl)ccc(NC(=O)N[C@@H]3CCC=C3Cl)c2O)CCN(C2CCC2)CC1` [Compound 169, (R)-1-(4-chloro-3-((1-cyclobutylpiperidin-4-yl)sulfonyl)-2-hydroxyphenyl)-3-(2-chlorocyclopent-2-en-1-yl)urea-d1, trifluoroacetic acid salt], at most 1 nM; as for `O=C(Nc1ccc(Cl)c(S(=O)(=O)[C@H]2C[C@H](N3CCCC3)C2)c1O)NC1C=CCC1` (stereo partly drawn) [Compound 174, 1-(4-chloro-2-hydroxy-3-((trans-3-(pyrrolidin-1-yl)cyclobutyl)sul-fonyl)phenyl)-3-(cyclopent-2-en-1-yl)urea], at most 10 nM.

As for `O=C(Nc1ccc(Cl)c(S(=O)(=O)[C@H]2CCOC2)c1O)NC1C=CCC1` (stereo partly drawn) [Compound 175, 1-(4-chloro-2-hydroxy-3-(((S)-tetrahydrofuran-3-yl)sulfonyl)phenyl)-3-(cyclopent-2-en-1-yl)urea], the IC50 is at most 10 nM. The same measure, in the same setting: next, `O=C(Nc1ccc(Cl)c(S(=O)(=O)C2CCOCC2)c1O)NC1C=CCC1` (centres unmarked) [Compound 176, 1-(4-chloro-2-hydroxy-3-((tetrahydro-2H-pyran-4-yl)sulfonyl)phenyl)-3-(cyclopent-2-en-1-yl)urea]: at most 10 nM; `O=C(Nc1ccc(Cl)c(S(=O)(=O)[C@H]2C[C@H](N3CCCC3)C2)c1O)NC1CCC=C1Cl` (stereo partly drawn) [Compound 177, 1-(4-chloro-2-hydroxy-3-((trans-3-(pyrrolidin-1-yl)cyclobutyl)sul-fonyl)phenyl)-3-(2-chlorocyclopent-2-en-1-yl)urea, trifluoroacetic acid salt]: at most 10 nM; `O=C(Nc1ccc(Cl)c(S(=O)(=O)[C@H]2CC[C@H](N3CCC3)CC2)c1O)NC1CCC=C1Cl` (stereo partly drawn) [Compound 178, 1-(3-((trans-4-(azetidin-1-yl)cyclohexyl)sul-fonyl)-4-chloro-2-hydroxyphenyl)-3-(2-chlorocyclopent-2-en-1-yl)urea, trifluoroacetic acid salt]: at most 10 nM. As to `O=C(Nc1ccc(Cl)c(S(=O)(=O)[C@H]2CCOC2)c1O)NC1CCC=C1Cl` (stereo partly drawn) [Compound 179, 1-(4-chloro-2-hydroxy-3-(((S)-tetrahydrofuran-3-yl)sulfonyl)phenyl)-3-(2-chlorocyclopent-2-en-1-yl)urea], the IC50 was at most 10 nM. On the same count and under the same terms, next, `O=C(Nc1ccc(Cl)c(S(=O)(=O)C2CCOCC2)c1O)NC1CCC=C1Cl` (centres unmarked) [Compound 180, 1-(4-chloro-2-hydroxy-3-((tetrahydro-2H-pyran-4-yl)sulfonyl)phenyl)-3-(2-chlorocyclopent-2-en-1-yl)urea]: at most 10 nM; `CC1(S(=O)(=O)c2c(Cl)ccc(NC(=O)N[C@@H]3CCC=C3Cl)c2O)COC1` [Compound 181, (R)-1-(4-chloro-2-hydroxy-3-((3-methyloxetan-3-yl)sulfonyl)phenyl)-3-(2-chlorocyclopent-2-en-1-yl)urea]: over 10000 nM.

As for `[2H]C([2H])([2H])C1(S(=O)(=O)c2c(Cl)ccc(NC(=O)N[C@@H]3CCC=C3Cl)c2O)CCOC1` (stereo partly drawn) [Compound 183, 1-(4-chloro-2-hydroxy-3-((3-(d3-methyl)tetrahydro-furan-3-yl)sulfonyl)phenyl)-3-((R)-2-chlorocyclopent-2-en-1-yl)urea], the IC50 was at most 10 nM. Turning to `CC1=CCC[C@H]1NC(=O)Nc1ccc(Cl)c(S(=O)(=O)[C@]2(C)CCOC2)c1O` [Compound 196, 1-(4-chloro-2-hydroxy-3-(((R)-3-methyltetrahydrofuran-3-yl)sulfonyl)phenyl)-3-((R)-2-methylcyclopent-2-en-1-yl)urea], the IC50 is at most 10 nM.
